According to ChEMBL document CHEMBL3991601, “The target landscape of clinical kinase drugs” (Science, 2017):
Calls of active or inactive are those of the source.

Columns and labels:
Activin receptor type-1 = biological target: T1, Activin receptor type-1 (Homo sapiens, UniProt Q04771)
T1 sequence (Q04771 whole entry): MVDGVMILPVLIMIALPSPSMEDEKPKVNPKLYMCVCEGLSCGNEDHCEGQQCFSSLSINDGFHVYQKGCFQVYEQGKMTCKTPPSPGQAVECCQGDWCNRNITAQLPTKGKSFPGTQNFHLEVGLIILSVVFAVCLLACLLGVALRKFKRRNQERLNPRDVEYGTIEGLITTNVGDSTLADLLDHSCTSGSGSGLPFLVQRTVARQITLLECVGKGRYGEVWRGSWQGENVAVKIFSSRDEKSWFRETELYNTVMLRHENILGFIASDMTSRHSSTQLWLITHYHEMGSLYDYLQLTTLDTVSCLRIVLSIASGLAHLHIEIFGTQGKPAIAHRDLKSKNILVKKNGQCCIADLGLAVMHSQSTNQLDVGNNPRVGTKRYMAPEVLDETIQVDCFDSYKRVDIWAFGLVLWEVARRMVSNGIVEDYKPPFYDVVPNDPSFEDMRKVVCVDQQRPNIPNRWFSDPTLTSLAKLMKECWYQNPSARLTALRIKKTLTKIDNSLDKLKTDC

[1] = biological target: Guanine nucleotide-binding protein G(i) subunit alpha-2 (Homo sapiens, UniProt P04899)
Sequence of Guanine nucleotide-binding protein G(i) subunit alpha-2 (P04899 whole entry): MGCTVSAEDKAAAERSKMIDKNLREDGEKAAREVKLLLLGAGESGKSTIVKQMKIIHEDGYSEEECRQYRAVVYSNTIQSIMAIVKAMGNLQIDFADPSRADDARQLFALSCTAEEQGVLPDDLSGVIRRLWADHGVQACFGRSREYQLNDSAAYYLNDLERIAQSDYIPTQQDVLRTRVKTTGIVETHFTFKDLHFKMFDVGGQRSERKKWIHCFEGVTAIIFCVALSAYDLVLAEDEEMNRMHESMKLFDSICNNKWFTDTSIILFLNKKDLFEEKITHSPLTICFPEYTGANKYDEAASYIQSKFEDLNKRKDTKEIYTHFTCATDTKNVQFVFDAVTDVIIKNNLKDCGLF

[2] = biological target: Macrophage-stimulating protein receptor (Homo sapiens, UniProt Q04912)
Sequence of Macrophage-stimulating protein receptor (Q04912 25-304 limits assumed): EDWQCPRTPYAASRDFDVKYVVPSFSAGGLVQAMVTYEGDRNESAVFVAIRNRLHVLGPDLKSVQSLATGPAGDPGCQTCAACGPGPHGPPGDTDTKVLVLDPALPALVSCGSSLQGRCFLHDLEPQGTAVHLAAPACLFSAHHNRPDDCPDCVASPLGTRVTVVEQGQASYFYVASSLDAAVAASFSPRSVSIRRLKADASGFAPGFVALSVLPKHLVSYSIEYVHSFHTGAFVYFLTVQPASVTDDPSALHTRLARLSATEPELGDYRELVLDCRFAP
Sequence of Macrophage-stimulating protein receptor (Q04912 310-1400 limits assumed): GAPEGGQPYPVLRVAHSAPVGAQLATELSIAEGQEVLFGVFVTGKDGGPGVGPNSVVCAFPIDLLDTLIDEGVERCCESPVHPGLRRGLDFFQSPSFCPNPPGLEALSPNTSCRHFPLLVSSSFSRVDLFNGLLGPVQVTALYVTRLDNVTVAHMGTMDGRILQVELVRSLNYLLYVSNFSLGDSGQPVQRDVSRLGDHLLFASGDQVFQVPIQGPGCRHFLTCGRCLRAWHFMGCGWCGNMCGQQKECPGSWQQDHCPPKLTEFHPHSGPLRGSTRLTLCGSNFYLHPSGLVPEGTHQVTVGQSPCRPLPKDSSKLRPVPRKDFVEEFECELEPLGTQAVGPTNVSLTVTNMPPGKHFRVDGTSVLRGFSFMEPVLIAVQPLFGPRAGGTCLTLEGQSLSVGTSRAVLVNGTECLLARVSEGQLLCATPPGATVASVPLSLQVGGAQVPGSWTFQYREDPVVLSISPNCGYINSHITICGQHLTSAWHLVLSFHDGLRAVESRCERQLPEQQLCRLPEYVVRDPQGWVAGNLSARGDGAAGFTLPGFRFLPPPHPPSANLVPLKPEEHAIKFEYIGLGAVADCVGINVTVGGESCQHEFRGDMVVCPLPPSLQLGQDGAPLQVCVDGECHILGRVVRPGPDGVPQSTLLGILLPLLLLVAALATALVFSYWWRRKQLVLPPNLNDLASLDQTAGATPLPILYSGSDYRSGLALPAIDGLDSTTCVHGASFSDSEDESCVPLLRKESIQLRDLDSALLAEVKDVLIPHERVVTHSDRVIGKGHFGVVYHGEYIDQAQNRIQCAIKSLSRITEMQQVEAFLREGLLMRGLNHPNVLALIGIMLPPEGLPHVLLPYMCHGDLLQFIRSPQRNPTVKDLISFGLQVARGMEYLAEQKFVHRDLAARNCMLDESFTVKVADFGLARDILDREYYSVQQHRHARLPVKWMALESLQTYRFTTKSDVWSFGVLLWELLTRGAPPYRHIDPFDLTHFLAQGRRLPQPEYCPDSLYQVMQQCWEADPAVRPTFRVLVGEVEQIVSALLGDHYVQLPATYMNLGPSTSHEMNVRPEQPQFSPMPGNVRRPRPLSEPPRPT

[3] = biological target: cAMP-dependent protein kinase type II-alpha regulatory subunit (Homo sapiens, UniProt P13861)
Sequence of cAMP-dependent protein kinase type II-alpha regulatory subunit (P13861 whole entry): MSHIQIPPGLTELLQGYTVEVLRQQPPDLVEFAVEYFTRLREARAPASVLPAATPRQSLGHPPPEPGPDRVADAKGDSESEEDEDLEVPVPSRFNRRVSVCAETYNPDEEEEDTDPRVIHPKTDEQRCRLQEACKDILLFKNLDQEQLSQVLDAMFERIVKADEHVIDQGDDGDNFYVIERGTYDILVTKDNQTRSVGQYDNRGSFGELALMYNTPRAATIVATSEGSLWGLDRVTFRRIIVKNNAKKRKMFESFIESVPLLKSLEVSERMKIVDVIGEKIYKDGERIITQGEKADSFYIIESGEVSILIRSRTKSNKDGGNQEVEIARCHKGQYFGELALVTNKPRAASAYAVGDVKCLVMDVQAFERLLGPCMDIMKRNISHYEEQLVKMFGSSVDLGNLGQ

[4] = biological target: T2, Serine/threonine-protein kinase D2 (Homo sapiens, UniProt Q9BZL6)
T2 sequence (Q9BZL6 whole entry): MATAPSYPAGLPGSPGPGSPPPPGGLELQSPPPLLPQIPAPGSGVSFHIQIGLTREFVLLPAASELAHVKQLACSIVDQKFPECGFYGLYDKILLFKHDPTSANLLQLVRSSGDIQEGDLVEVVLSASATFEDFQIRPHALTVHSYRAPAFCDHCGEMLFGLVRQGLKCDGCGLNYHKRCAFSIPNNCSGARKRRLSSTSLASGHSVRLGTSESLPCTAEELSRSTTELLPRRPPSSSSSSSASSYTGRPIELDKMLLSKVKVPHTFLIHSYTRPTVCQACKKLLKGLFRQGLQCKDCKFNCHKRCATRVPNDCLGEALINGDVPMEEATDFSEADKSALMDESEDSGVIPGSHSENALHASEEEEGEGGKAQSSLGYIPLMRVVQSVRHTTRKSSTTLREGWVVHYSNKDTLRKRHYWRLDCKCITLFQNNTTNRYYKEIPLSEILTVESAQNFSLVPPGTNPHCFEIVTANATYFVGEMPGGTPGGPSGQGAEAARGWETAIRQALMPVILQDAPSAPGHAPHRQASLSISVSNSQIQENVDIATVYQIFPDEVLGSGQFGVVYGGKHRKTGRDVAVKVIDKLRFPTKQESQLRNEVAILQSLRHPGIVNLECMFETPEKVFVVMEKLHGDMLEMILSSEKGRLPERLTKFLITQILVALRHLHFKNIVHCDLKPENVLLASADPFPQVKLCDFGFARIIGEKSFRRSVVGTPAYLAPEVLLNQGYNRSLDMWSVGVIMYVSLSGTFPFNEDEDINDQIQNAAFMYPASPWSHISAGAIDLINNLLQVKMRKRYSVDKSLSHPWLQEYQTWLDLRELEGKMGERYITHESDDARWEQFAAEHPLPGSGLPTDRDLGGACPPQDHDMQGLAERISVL

[5] = biological target: T3, Structural maintenance of chromosomes protein 1A (Homo sapiens, UniProt Q14683)
T3 sequence (Q14683 whole entry): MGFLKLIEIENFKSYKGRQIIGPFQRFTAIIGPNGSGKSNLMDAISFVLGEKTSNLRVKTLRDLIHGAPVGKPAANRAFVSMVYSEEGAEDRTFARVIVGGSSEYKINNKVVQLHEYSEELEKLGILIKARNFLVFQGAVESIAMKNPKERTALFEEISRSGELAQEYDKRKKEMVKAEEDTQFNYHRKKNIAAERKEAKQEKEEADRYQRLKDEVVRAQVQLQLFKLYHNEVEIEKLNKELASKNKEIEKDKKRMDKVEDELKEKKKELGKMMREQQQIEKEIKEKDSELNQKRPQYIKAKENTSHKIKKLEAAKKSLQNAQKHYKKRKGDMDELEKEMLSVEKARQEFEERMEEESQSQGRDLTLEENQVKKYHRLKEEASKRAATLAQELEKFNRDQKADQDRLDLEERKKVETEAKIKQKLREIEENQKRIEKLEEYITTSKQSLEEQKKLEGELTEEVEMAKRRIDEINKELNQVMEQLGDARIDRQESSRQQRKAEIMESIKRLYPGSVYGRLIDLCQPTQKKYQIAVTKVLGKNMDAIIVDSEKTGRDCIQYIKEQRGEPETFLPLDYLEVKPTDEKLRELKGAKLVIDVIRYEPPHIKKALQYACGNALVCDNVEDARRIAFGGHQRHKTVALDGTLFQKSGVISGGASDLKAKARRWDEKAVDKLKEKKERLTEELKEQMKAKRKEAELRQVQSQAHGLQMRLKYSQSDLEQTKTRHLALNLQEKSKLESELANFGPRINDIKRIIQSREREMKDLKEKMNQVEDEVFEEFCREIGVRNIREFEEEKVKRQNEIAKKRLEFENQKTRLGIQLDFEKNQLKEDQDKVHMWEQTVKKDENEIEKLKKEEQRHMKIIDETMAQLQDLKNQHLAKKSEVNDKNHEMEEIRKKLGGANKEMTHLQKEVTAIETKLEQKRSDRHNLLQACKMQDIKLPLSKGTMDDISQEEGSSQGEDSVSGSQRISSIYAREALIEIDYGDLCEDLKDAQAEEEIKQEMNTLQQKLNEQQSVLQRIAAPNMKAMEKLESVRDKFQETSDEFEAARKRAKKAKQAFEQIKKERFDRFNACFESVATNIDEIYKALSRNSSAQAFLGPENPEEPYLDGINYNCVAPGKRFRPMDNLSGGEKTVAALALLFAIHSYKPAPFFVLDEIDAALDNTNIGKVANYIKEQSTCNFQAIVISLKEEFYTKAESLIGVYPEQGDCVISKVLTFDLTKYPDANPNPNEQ

Measured: Kd
Further: in the data inactive means no Kd found up to 30 µM.

CO[C@H]1C[C@@H]2CC[C@@H](C)[C@@](O)(O2)C(=O)C(=O)N2CCCC[C@H]2C(=O)O[C@H]([C@H](C)C[C@@H]2CC[C@@H](OC(=O)C(C)(CO)CO)[C@H](OC)C2)CC(=O)[C@H](C)/C=C(\C)[C@@H](O)[C@@H](OC)C(=O)[C@H](C)C[C@H](C)/C=C/C=C/C=C/1C [TEMSIROLIMUS]
inactive: Activin receptor type-1 > 30 µM | [1] > 30 µM | [2] > 30 µM | [3] > 30 µM | [4] > 30 µM | [5] > 30 µM

Cn1cnc2c(F)c(Nc3ccc(Br)cc3F)c(C(=O)NOCCO)cc21 [BINIMETINIB]
inactive: Activin receptor type-1 > 30 µM | [1] > 30 µM | [2] > 30 µM | [3] > 30 µM | [4] > 30 µM | [5] > 30 µM

CCOc1cc2ncc(C#N)c(Nc3ccc(F)c(Cl)c3)c2cc1NC(=O)/C=C/CN(C)C [PELITINIB]
inactive: Activin receptor type-1 > 30 µM | [1] > 30 µM | [2] > 30 µM | [3] > 30 µM | [4] > 30 µM | [5] > 30 µM

COc1c(OCCCN2CCOCC2)ccc2c1N=C(NC(=O)c1cnc(N)nc1)N1CCN=C21 [COPANLISIB]
inactive: Activin receptor type-1 > 30 µM | [1] > 30 µM | [2] > 30 µM | [3] > 30 µM | [4] > 30 µM | [5] > 30 µM

O=c1[nH]ccc2cc(OC3CCNCC3)ccc12 [SAR-407899 FREE BASE]
inactive: Activin receptor type-1 > 30 µM | [1] > 30 µM | [2] > 30 µM | [3] > 30 µM | [4] > 30 µM | [5] > 30 µM

CNC(=O)c1cccc2cc(Oc3ccnc4cc(OCC5(N)CC5)c(OC)cc34)ccc12 [LUCITANIB]
inactive: Activin receptor type-1 > 30 µM | [1] > 30 µM | [2] > 30 µM | [3] > 30 µM | [4] > 30 µM | [5] > 30 µM

C=CC(=O)Nc1cc2c(Nc3ccc(F)c(Cl)c3)ncnc2cc1C#CC(C)(C)N1CCN(C)CC1 [AV-412 FREE BASE]
inactive: Activin receptor type-1 > 30 µM | [1] > 30 µM | [2] > 30 µM | [3] > 30 µM | [4] > 30 µM | [5] > 30 µM

C[C@@H](NC(=O)c1ncnc(N)c1Cl)c1ncc(C(=O)Nc2cc(C(F)(F)F)c(Cl)cn2)s1 [TOVORAFENIB]
inactive: Activin receptor type-1 > 30 µM | [1] > 30 µM | [2] > 30 µM | [3] > 30 µM | [4] > 30 µM | [5] > 30 µM

FC(F)(F)c1ccc(/C=C/c2nc(COc3ccc(CCCCn4ccnn4)cc3)co2)cc1 [MUBRITINIB]
inactive: Activin receptor type-1 > 30 µM | [1] > 30 µM | [2] > 30 µM | [3] > 30 µM | [4] > 30 µM | [5] > 30 µM
